The record followed here is ChEMBL document CHEMBL1129998, “Pharmacological options in the treatment of benign prostatic hyperplasia” (J Med Chem, 1997).

In assay [1] the target is T1, 3-oxo-5-alpha-steroid 4-dehydrogenase 2 (Homo sapiens, UniProt P31213).
T1 sequence (P31213 whole entry): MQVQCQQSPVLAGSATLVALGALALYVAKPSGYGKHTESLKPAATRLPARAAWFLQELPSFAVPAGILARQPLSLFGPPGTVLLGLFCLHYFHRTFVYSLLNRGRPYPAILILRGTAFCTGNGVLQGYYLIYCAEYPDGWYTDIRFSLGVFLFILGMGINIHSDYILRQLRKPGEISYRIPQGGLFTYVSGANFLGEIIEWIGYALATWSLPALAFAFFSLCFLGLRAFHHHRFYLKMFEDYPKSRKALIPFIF
The experiment in a line: Inhibition of human 5-alpha reductase 2 isozyme.

Assay [2] has as its target T2, 3-oxo-5-alpha-steroid 4-dehydrogenase 1 (Homo sapiens, UniProt P18405).
T2 sequence (P18405 whole entry): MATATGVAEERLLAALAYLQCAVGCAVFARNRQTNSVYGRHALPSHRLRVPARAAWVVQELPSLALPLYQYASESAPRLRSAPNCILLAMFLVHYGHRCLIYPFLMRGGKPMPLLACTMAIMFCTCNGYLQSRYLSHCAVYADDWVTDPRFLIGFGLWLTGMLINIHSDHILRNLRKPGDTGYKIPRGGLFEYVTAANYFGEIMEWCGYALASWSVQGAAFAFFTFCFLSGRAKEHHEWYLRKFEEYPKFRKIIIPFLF
The experiment in a line: Inhibitory concentration was tested on human 5-alpha reductase 1 isozyme.

Assay [3] deals with T3, Steroid 5-alpha-reductase (Rattus norvegicus, UniProt P24008+P31214).
T3 sequence (P24008 whole entry): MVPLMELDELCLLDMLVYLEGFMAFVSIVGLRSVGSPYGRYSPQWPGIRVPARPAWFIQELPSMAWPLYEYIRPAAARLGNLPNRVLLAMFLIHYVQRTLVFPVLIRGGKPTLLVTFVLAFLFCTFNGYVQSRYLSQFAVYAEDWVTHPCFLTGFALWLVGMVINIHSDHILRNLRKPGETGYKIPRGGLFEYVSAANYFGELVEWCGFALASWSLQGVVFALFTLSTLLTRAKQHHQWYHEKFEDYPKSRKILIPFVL
T3 sequence (P31214 whole entry): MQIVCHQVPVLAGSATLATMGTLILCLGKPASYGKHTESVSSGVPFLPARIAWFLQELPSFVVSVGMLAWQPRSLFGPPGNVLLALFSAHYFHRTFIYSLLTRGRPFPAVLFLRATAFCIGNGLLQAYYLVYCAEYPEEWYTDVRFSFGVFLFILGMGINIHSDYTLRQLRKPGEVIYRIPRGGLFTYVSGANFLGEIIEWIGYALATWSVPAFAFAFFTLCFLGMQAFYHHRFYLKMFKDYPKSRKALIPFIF
The experiment in a line: Inhibition of rat 5-alpha reductase isozyme. The class given is protein assay.

Assay [4] addresses T4, Alpha-1D adrenergic receptor (Homo sapiens, UniProt P25100).
T4 sequence (P25100 whole entry): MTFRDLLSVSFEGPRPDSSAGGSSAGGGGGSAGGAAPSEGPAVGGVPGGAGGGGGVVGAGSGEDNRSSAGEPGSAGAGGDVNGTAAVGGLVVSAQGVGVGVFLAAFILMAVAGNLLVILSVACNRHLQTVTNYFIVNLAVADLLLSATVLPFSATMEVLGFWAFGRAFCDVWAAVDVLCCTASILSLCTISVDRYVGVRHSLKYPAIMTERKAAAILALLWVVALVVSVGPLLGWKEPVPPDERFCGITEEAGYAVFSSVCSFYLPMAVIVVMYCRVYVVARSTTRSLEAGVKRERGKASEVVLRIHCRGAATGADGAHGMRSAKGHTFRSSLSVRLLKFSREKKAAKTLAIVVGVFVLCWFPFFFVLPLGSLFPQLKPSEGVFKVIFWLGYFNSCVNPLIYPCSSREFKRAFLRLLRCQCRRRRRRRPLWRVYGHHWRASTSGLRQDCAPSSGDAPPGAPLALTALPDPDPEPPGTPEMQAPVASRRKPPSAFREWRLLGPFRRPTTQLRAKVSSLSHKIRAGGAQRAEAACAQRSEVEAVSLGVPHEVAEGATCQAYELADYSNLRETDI
Put plainly: Binding affinity was tested on human Alpha-1D adrenergic receptor.

The target in assay [5] is T5, Alpha-1A adrenergic receptor (Homo sapiens, UniProt P35348).
T5 sequence (P35348 whole entry): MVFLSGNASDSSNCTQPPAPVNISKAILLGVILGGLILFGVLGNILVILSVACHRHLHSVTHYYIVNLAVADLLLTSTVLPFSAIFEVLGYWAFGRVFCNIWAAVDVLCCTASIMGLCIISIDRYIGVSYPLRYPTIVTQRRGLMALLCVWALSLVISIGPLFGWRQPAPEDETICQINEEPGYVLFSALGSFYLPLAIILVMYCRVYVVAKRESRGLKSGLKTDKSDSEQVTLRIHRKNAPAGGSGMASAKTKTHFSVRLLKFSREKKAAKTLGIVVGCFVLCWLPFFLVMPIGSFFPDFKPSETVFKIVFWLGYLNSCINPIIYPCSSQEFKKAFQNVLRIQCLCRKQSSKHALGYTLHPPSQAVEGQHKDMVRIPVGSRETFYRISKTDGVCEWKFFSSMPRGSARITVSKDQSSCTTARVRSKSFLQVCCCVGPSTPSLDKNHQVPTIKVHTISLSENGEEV
The experiment in a line: Binding affinity was tested on human Alpha-1A adrenergic receptor.

Assay [6] addresses T6, Alpha-1B adrenergic receptor (Homo sapiens, UniProt P35368).
T6 sequence (P35368 whole entry): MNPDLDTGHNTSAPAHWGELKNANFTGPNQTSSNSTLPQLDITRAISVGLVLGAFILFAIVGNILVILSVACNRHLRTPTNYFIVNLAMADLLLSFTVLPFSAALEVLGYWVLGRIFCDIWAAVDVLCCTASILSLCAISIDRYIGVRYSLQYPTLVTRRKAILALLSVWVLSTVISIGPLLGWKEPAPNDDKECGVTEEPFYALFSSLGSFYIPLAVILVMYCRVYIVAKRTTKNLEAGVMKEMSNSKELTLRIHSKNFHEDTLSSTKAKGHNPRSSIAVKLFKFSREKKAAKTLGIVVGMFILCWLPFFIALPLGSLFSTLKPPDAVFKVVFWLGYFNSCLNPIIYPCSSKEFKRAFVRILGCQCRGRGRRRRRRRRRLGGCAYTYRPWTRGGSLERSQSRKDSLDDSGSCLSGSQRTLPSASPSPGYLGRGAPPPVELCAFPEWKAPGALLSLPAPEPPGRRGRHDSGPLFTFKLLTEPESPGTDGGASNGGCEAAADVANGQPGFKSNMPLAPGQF
The experiment in a line: Binding affinity was tested on human Alpha-1B adrenergic receptor.

`CCN(CC)C(=O)[C@H]1CC[C@H]2[C@@H]3CC[C@H]4N(C)C(=O)CC[C@]4(C)[C@H]3CC[C@]12C`: the concentration for half-maximal inhibition (IC50) stood at 1.9 nM in assay [1], 1.7 nM in assay [2] and 9.5 nM in assay [3].
For `C[C@]12C=CC(=O)NC1CCC1C2CC[C@@]2(C)C1CC[C@@H]2C(=O)N(c1ccccc1)c1ccccc1` (some centres undefined), the half-maximal inhibitory concentration (IC50) in assay [1] was 25.2 nM; in assay [2], greater than 1000 nM.
The like results for `CC(C)CCCC(C)[C@H]1CCC2C3CCC4N(C)C(=O)CC[C@]4(C)C3CC[C@@]21C` (some centres undefined) were, in that order, 218 nM and 1.7 nM.
`Cc1c(O[C@@H](C)c2ccc(CC(C)C)cc2)ccc(C(=O)Nc2ccccc2OCCCC(=O)O)c1C` yielded an IC50 in assay [1] of 256 nM.
On to `CCN1C(=O)CC[C@]2(C)C3CC[C@@]4(C)C(CC[C@@H]4C(C)CCCC(C)C)C3[C@@H](C)CC12` (some centres undefined), for which the IC50 in assay [1] worked out at 1390 nM; in assay [2], 3.3 nM.
The like results for `CN(C(=O)[C@H]1CCC2C3CCC4NC(=O)C=C[C@]4(C)C3CC[C@@]21C)c1ccccc1` (some centres undefined) were, in that order, 0.2 nM and 350 nM.
Regarding `CC(C)Cc1ccc(C(Nc2cccc(C(=O)c3cn(CCCC(=O)O)c4ccccc34)c2)c2ccc(CC(C)C)cc2)cc1`, the figures for the IC50 in assay [1], in assay [2] and in assay [3] were 36 nM, 38 nM and 128 nM, respectively.
Take `CCC1=C(C(=O)NCCCN2CCC(c3ccccc3)(c3ccccc3)CC2)C(c2ccc([N+](=O)[O-])cc2)/C(=C(\O)OC)C(C)=N1` (centres undefined): the inhibition constant (Ki) in assay [4] is 204 nM; in assay [5] it was 0.661 nM; in assay [6], 148 nM.
Turning to `CC(C)Cc1ccc([C@H](C)Oc2ccc(C(=O)c3cn(CCCC(=O)O)c4ccccc34)cc2)cc1`, the values for the IC50 in assay [1], in assay [2] and in assay [3] were 4 nM, 40 nM and 1 nM, respectively.
In the case of `COc1c(C)c(C)c(O)c(C)c1CN(C)CCOc1cc(C)c(O)cc1C(C)C`, the figures for the Ki in assay [4], in assay [5] and in assay [6] were 1.26 nM, 0.398 nM and 1.26 nM, respectively.
The compound `CC(=O)CC(=O)NCCCN1CCC(c2ccccc2)(c2ccccc2)CC1` returned an inhibitory constant (Ki) in assay [5] of 100 nM.
For the compound `COc1cccc(OC)c1OCCNCC1COc2ccccc2O1` (centres undefined), the affinity in assay [5] corresponds to a Ki of 0.158 nM.
As for `O=C(O)c1ccc2c(c1)CCc1cc(Br)ccc1-2`, the 50% inhibitory concentration (IC50) in assay [1] turned out to be 10000 nM; in assay [2], 26 nM.
The like results for `C[C@]12C=CC(=O)NC1CCC1C2CC[C@@]2(C)C1CC[C@@H]2C(=O)Nc1ccccc1` (some centres undefined) were, in that order, less than 0.1 nM and 20 nM.
The like results for `C[C@]12C=CC(=O)NC1CCC1C2CC[C@@]2(C)C1CC[C@@H]2C(=O)Nc1cccc(-c2ccccc2)c1` (some centres undefined) were, in that order, less than 0.1 nM and 14 nM.
In the case of `CCC1=NC(CC)=C(C(=O)NCCCN2CCC(c3ccccc3)(c3ccccc3)CC2)C(c2ccc([N+](=O)[O-])cc2)/C1=C(\O)OC` (centres undefined), the Ki was 447 nM in assay [4], 1.26 nM in assay [5] and 282 nM in assay [6].
For `C[C@]12C=CC(=O)NC1CCC1C2CC[C@@]2(C)C1CC[C@@H]2C(=O)Nc1ccccc1C(F)(F)F` (some centres undefined), the IC50 in assay [1] was less than 0.1 nM; in assay [2], 5.6 nM.
In the case of `CO/C(O)=C1\C(C)=NC(C)=C(C(=O)NCCCN2CCC(c3ccccc3)(c3ccccc3)CC2)C1c1ccc(OC(C)C)cc1` (centres undefined), the values for the Ki in assay [4], in assay [5] and in assay [6] were 891 nM, 69.2 nM and 174 nM, respectively.
Turning to `CC(C)Cc1ccc([C@]2(C)Oc3ccc(C(=O)c4cn(CCCC(=O)O)c5ccccc45)cc3O2)cc1`, the IC50 in assay [1] worked out at 23 nM; in assay [2] it was 25 nM; in assay [3], 9 nM.
Take `CC(C)CCCC(C)[C@H]1CCC2C3C(CC[C@@]21C)[C@@]1(C)CCC(=O)N(C)C1C[C@@H]3c1ccccc1` (some centres undefined): the IC50 in assay [1] was 428 nM; in assay [2], 134 nM.
Consider `CC(C)Cc1ccc([C@@H](C)Oc2ccc(C(=O)c3cn(CCCC(=O)O)c4ccccc34)cc2)cc1`, for which the values for the IC50 in assay [1], in assay [2] and in assay [3] were 69 nM, 574 nM and 30 nM, respectively.
For `COc1ccc(CCNCC2CCc3ccccc3C2)cc1` (centres undefined), the results for the Ki in assay [4], in assay [5] and in assay [6] were 158 nM, 3.98 nM and 39.8 nM, respectively.
On to `C[C@]12C=CC(=O)NC1CCC1C2CC[C@@]2(C)C1CC[C@@H]2C(=O)Nc1cc(C(F)(F)F)ccc1C(F)(F)F` (some centres undefined), for which the IC50 in assay [1] worked out at 0.5 nM; in assay [2], 2.4 nM.
`CC(C)CCCC(C)[C@H]1CCC2C3CC=C4NC(=O)CC[C@]4(C)C3CC[C@@]21C` (some centres undefined) registered an IC50 in assay [2] of 19.1 nM.
For `CO/C(O)=C1\C(C)=NC(C)=C(C(=O)NCCCCN2CCC(c3ccccc3)(c3ccccc3)CC2)C1c1ccc([N+](=O)[O-])cc1` (centres undefined), the Ki is 145 nM in assay [4], 5.89 nM in assay [5] and 64.6 nM in assay [6].
With `C[C@]12C=CC(=O)NC1CCC1C2CC[C@@]2(C)C1CC[C@@H]2C(=O)Nc1cccc2ccccc12` (some centres undefined), the IC50 turned out to be 0.2 nM in assay [1] and 8.1 nM in assay [2].
For the compound `CN1C(=O)CC[C@]2(C)c3ccc(Cl)cc3CCC12` (some centres undefined), in assay [2], half-maximal inhibition (IC50) was put at 17 nM.
In assay [6], `COc1ccccc1N1CCN(CCN2C(=O)CC3(CCCC3)CC2=O)CC1` showed an inhibitory constant (Ki) of 631 nM.
Still for that read-out and setting: the same measure for `CCOc1ccccc1OCCN[C@H](C)Cc1ccc(OC)c(S(N)(=O)=O)c1` (stereo in doubt; form 2) [TAMSULOSIN]: 1.26 nM.
Regarding `CCOc1ccccc1OCCN[C@H](C)Cc1ccc(OC)c(S(N)(=O)=O)c1` (stereo in doubt; form 3) [TAMSULOSIN], the Ki is 7.94 nM in assay [4] and 100 nM in assay [6].
With `COc1cc2nc(N(C)CCCNC(=O)C3CCCO3)nc(N)c2cc1OC` (centres undefined) [ALFUZOSIN], the inhibition constant Ki in assay [6] is 10 nM.
For the compound `COc1cc2nc(N3CCN(C(=O)c4ccco4)[C@H]4CCCC[C@H]43)nc(N)c2cc1OC` [CYCLAZOSIN], the affinity in assay [5] corresponds to a Ki of 25.1 nM.
Turning to `C[C@H](Cc1cc2c(c(C(N)=O)c1)N(CCCO)CC2)NCCOc1ccccc1OCC(F)(F)F` [SILODOSIN], the Ki in assay [4] is 2 nM; in assay [5] it was 0.0398 nM; in assay [6] it was 20 nM.
